Data set [1] relates to MDA-MB-231 cells. The experiment in a line: Cell cycle analysis by flow cytometry. Format: cell-based, human. As to conditions: synchronized, released 24 h, 1.5, 3.0, 4.5 µM. As to the method:
Cells were synchronized by double thymidine block prior to cell cycle analysis by Propidium Iodide (PI) staining. Briefly, the cells were blocked with 2 mM thymidine for 18 h, then released with fresh media for 8 h followed by re-blocking with thymidine for another 16 h. Following the second block, the cells were released with or without treatments with the NB compounds and cells were collected and fixed in 70% ethanol at the time points indicated. After alcohol fixation for 2 h, the cells were washed with cold 1XPBS followed by staining with 50 µg/ml PI solution in PBS with addition of 5 µg/ml RNAse A for at least 4 h. The cells were then analyzed by the Flow Cytometry analyzer BD LSR II for percentage of cells in G1/G0, S, and G2/M phases of the cell cycle.

Data set [2] deals with tamoxifen-resistant MCF7 breast cancer cells. The experiment in a line: Proliferation of tamoxifen-resistant MCF7 cells. Type of data set: cell-based, human. As to conditions: 6 days, cell numbers. As to the method:
resistant MCF7 cells. Cells were treated with NB-73 or trans-hydroxytamoxifen (OH-
Tam) for 6 days and cell numbers were monitored. Values are mean ± SD of three
(1 picture or pasted object on this page, not shown here)

Data set [3] concerns DT22 breast tumor xenografts. Put plainly: DT22 human breast tumor xenograft growth in NSG mice. Type of data set: in vivo. The following applies: for tumor growth: DT22 tumors, NSG mice. As to the method: For examination of the effects of compounds on breast tumor growth suppression, intact female NOD/SCID-gamma (NSG) mice were used as detailed previously.[39] DT-22 breast cancer cells (1 × 10^6 cells/mouse) were injected s.c. into the right axial mammary gland. Mice received s.c. injection or oral gavage daily or every second or third day as indicated, with vehicle or treatment compound, and tumor volume (length × width^2/2) was monitored over time.

Data set [4] relates to MDA-MB-231 cells. Put plainly: Apoptosis by AnnexinV/propidium iodide flow cytometry. Format: cell-based, human. As to conditions: 1.5 or 3 µM, 24 h or 72 h. As to the method: (§1) The cells were analyzed for percentage of apoptotic cells following 24 h or 72 h of vehicle or compound treatment by staining with the Alexa Fluor® 488 Annexin V/Dead Cell Apoptosis Kit (Thermo Fisher) and flow cytometry according to the manufacturer’s protocol. Caspase activity in the cells after treatment with control vehicle or compounds was determined using the Caspase-Glo 3/7 Assay system (Promega) in a 96-well format following the manufacturer’s instructions. Supplementary Figs 6 and 7 exemplify the gating strategy used for the cell cycle and apoptosis flow cytometry analyses.
(In general: Flow cytometry measures light scatter and fluorescence of single cells or particles in a stream.)

For data set [5], the system named is FOXM1 target genes in MDA-MB-231 cells. The experiment in a line: RNA-Seq Gene Set Enrichment Analysis against FOXM1 target gene sets. Format: cell-based, human. As to conditions: NB-73 […] 24 h, siFOXM1 25 nM 72 h. As to the method:
(§2) For gene expression analysis, total RNA was extracted from cells using Trizol reagent and further cleaned using the Turbo DNase and RNAqueous kits (ThermoFisher). Cells were treated with Veh (0.1% EtOH), or with the compounds indicated for 9 h or 24 h. Once the sample quality and replicate reproducibility were verified, samples from each group were subjected to sequencing. RNA at a concentration of 100 ng/µl in nuclease-free water was used for library construction. cDNA libraries were prepared with the mRNA-TruSeq Kit (Illumina, Inc.). In brief, the poly-A containing mRNA was purified from total RNA, the RNA was fragmented, double-stranded cDNA was generated from fragmented RNA, and adapters were ligated to the ends.
The paired-end read data from the HiSeq 4000 were processed and analyzed through a series of steps. […] Reads were trimmed of adapters and low expression data using Trimmomatic version 0.38.[42] The STAR alignment tool version 2.5.3a was used to align the sequenced reads to the GRCh37 human genome from Ensembl.[43] Gene counts were calculated using subread version 1.5.2.[44],[45] […]
Gene Set Enrichment Analysis (GSEA)[48] was used for examination of our genome-wide expression profiles. Overrepresented gene ontology (GO) biological processes were determined by the web-based DAVID Bioinformatics Resources database.[49],[50] […]

A short description of data set [6]: Pharmacokinetics in mice after single s.c. or oral dose. Format: in vivo, female CD1 mice. As to conditions: for AUC / Cmax / half-life: female, CD1, mouse, 60 mg/kg, single dose, plasma.
Experimental: The pharmacokinetics of compounds were monitored after single dose administration into female CD1 mice (7–9 weeks of age) via s.c. injection or oral gavage, as described.[39] For s.c. injection, each compound was dissolved in DMSO and then mixed with corn oil for a total injection volume of 100 μL (10% DSMO + 90% corn oil) per mouse. For oral gavage, compounds were administered in a 200 µL formulation of 9/0.5/0.5/90 parts of PEG400/Tween80/Povidone/0.5% Carboxymethylcellulose in DI water. […] Compounds were quantified by LC-MS/MS at the University of Illinois Metabolomics Core Facility. The data were fitted to a non-compartment model.
Data set [7] has as its system MCF7 cells. Put plainly: RNA-Seq gene regulation in MCF7 cells. Type of data set: cell-based, human. The following applies: MCF7, 9 h treatment, p < 0.05; FDI-6 20 µM. As to the method: as §2
The paired-end read data from the HiSeq 4000 were processed and analyzed through a series of steps. Base calling and de-multiplexing of samples within each lane were done with Casava 1.8.2. The RNA sequences were prepared with Illumina’s TruSeq Stranded mRNAseq Sample Prep kit. Reads were trimmed of adapters and low expression data using Trimmomatic version 0.38.[42] The STAR alignment tool version 2.5.3a was used to align the sequenced reads to the GRCh37 human genome from Ensembl.[43] Gene counts were calculated using subread version 1.5.2.[44],[45] The edgeR Bioconductor package in R was used for normalization and differential expression analysis. Default normalization methods were used, specifically trimmed mean of M values or TMM was used to calculate the normalized expression values. This method calculates the weighted trimmed mean of the log expression ratios in a gene-wise fashion.[46],[47] We considered genes with fold-change > 2 and p-value < 0.05 as statistically significant, differentially expressed.

In data set [8] the test system is FOXM1-regulated genes in DT22 tumors. The experiment in a line: FOXM1-regulated gene expression in xenograft tumors by q-PCR. Type of data set: in vivo, NSG mice. The following applies: 10 mg/kg NB-73 s.c., end of treatment. An excerpt: Primer sequences for the genes studied were obtained from the Harvard Primer Bank. Sequences are available on their website.

The test system of data set [9] is FOXM1 target gene expression in MCF7 cells. The experiment in a line: FOXM1 target gene expression by qRT-PCR. Format: cell-based, human. As to conditions: MCF7, 24 h, compound at its IC50 for proliferation. As to the method: Total RNA was isolated using TRIzol (Invitrogen) and reverse transcribed using […] reverse transcriptase (New England BioLabs). Real-time PCR was performed using SYBRgreen PCR Master Mix (Quantabio) as described.[15] Relative mRNA levels of genes were normalized to the housekeeping gene 36B4, and fold-change calculated relative to the vehicle treated samples. Results are the average ± SD from at least two independent experiments carried out in triplicate. Primer sequences for the genes studied were obtained from the Harvard Primer Bank. Sequences are available on their website.
For orientation: Real-time PCR tracks product formation cycle by cycle.

Data set [10] concerns Caspase 3/7 activity. The experiment in a line: Caspase Glo 3/7 assay. Type of data set: cell-based, human. The following applies: 1.5 or 3 µM, 24 h. As to the method: as §1

The text below walks through data of article PMC6884575, “Suppression of FOXM1 activities and breast cancer growth in vitro and in vivo by a new class of compounds” (NPJ Breast Cancer, 2019).

By AUC is commonly meant the area under the concentration-time curve, a measure of exposure. Read a high AUC as more exposure. In general, Cmax refers to the peak of the concentration-time curve. Broadly, the half-life is the time needed for the level to fall by half in the phase considered. Low readings indicate rapid decline, high ones slow decline.

Each structure is given as a SMILES string.

For the compound `C[N+]1(CCCCCCOc2ccc(C(=C3C4CC5CC(C4)CC3C5)c3ccc(OCCCCCC[N+]4(C)CCCCCC4)cc3)cc2)CCCCCC1` [NB-73], the “percent of cells in G2/M” value in data set [1] is “large increase in the percent of cells in G2/M”. Moreover, the “percent of cells in S phase” value in [1] is given as “decrease in the percent of cells in S phase”. Further, the “proliferation of tamoxifen-resistant MCF7 cells” value in data set [2] is given as “effectively suppressed the proliferation”. Moreover, the tumor growth result is on record as “reduced tumor growth” in data set [3] (5 mg/kg s.c. daily then every other day from day 21); “more markedly suppressed growth” in data set [3] (10 mg/kg s.c. daily then every other day from day 21); “greatly suppress tumor growth” in data set [3] (s.c., 20 mg/kg every other day for 10 days then 10 mg/kg every other day). Besides, the “tumor growth in vivo” value in data set [3] (low doses (2–20 mg/kg) s.c. daily or every other day) is “greatly suppress tumor growth”. Further, the “percent of apoptotic cells” value in data set [4] is “increased the percent of apoptotic cells”. Further, in data set [5], the “normalized enrichment score (NES), FOXM1 target gene set” value is given as -1.32. The “blood levels of compound” value in [6] (after oral administration) is on record as “only very low levels”; in data set [6] (after s.c. injection) it was “very high blood levels”. For the same compound, the AUC in data set [6] (oral) was determined as 0.015 µM·h; in data set [6] (sc) it was 158 µM·h. In addition, the Cmax in [6] (oral) worked out at 5.5 nM; in [6] (sc) it was 5300 nM. In addition, the values for the half-life in data set [6] (oral) and in [6] (sc) were 40.3 h and 31.4 h, respectively. Besides, the “genes regulated more than 2-fold (Venn diagram)” value in [7] is 870 genes. In addition, the “expression of FOXM1-regulated genes in tumors” value in data set [8] is “greatly reduced”. Moreover, in data set [9], the “expression of ATF3, a gene suppressed by FOXM1” value was “increased expression of ATF3”. The “expression of FOXM1 stimulated target genes (FOXM1C, AURKB, CCNB1, PLK1)” value in data set [9] is reported as “significantly reduced the expression”. The “caspase 3/7 activity” value in data set [10] is reported as “increased”.
